These results are taken from US8501741B2, “Optically active compound of prulifloxacin for treating infection and preparation method thereof” (priority 2010, dated 2013).

SMILES strings stand for the structures. Bounds are passed on as bounds.

Usually half-life stands for how long it takes for the measured level to halve. As a reminder, the ED50 is the dose that gives a 50% effect, or the effect in half of the subjects. A high value points to a need for a large dose.

The conditions of data set [1]: background statement; cited from earlier work.
Data set [2] is described as follows: Acute toxicity test in NIH mice, limited dosage by gavage. Particulars: both sexes, mouse, in vivo, po, 5000 mg/kg, single gavage, 2 weeks observation, read-out: LD50 of oral administration. How it is done: Acute toxicity test was conducted in NIH mice by administrating limited-dosages of drugs.
Levo-prulifloxacin; control groups: racemic prulifloxacin group and blank control group
20 NIH mice in each group, half male and half female, 18˜22 g in body weight, were fasted overnight. Levo-prulifloxacin and racemic prulifloxacin were prepared to a 250 mg/ml suspension with 0.3% CMC, respectively, and then administered to the mice by gavage at once in the amount of 0.2 mL/10 g. After administration, observation was firstly conducted for 4 hours continuously, and then once a day for 2 weeks continuously. Animals' responses to toxicity, appearing time and recovering time thereof were recorded. On Day 2, 4, 8, 11 and 15, body weight of the animals were measured and amounts of feed intake were determined. Observation indexes included diet, appearance, behavior, secretion, excrement and the like Animals' death was recorded, starting time, severity, duration of toxic symptoms and toxic reactions, whether the symptoms or reactions are reversible and the like were also recorded. Animals dying from poisoning and dying animals were dissected roughly in time while all other animals were dissected roughly after completing observation. […] The obtained data were processed by Bliss method to calculate LD50.

The subject of another data set is Pseudomonas aeruginosa. Put plainly: Systemic infection in mouse, P. aeruginosa. Particulars: Kunming mice, intraperitoneal infection with minimal lethal dose, drug by gavage 1 hour after infection, 7 days observation, Bliss method; for ED50: Pseudomonas aeruginosa, ip. It is filed as in vivo. From the text: (§1) 1. Origin of testing samples:
(§2) • Levo-ofloxacin was commercially available.
(§3) Prulifloxacin was self-made product, prepared according to the method disclosed in the publication J. Med. Chem. 1992, 35, 4727-4738.
(§4) Levo-prulifloxacin, dextro-prulifloxacin, levo-prulifloxacin hydrochloride, levo-prulifloxacin mesylate were self-made, prepared according to the method described in examples (see respective ordinal number in parenthesis following name of testing drug in Table 6);
(§5) 2. Experimental strains: Bacteria for infecting animals were pathogenic strains isolated from clinic;
(§6) 3. Preparation of liquid bacteria culture: 2-3 colonies were picked and inoculated into M-H broth, followed by incubation for 18 hours at 37° C. The culture was diluted appropriately with 5% dried yeast liquid for use.
(§7) 4. Experimental animals: Healthy SPF Kunming mice were selected, with 18-22 g in body weight, half male and half female.
(§8) 5. Determination of minimal lethal dose of bacteria: Mice were divided randomly, resulting in 10 mice in each group, half male and half female. The above-mentioned bacterial cultures in different dilutions were injected intraperitoneally into mice, in the amount of 0.5 mL per mouse, followed by continuous observation for 7 days after infection and recording the number of death mice. The minimal amount of bacteria which caused 100% death of mice was deemed as minimal lethal dose of bacteria and thereby was adopted for infection tests in vivo. 6. Preparation of testing drugs: The testing drugs were prepared with 1% CMC, respectively. 7. Method for infection and treatment: Experimental animals were divided randomly but evenly based on gender and body weight, resulting in 10 mice in each group, half male and half female. Minimal lethal dose of bacteria were injected intraperitoneally into mice in amount of 0.5 mL/mice, respectively. After infected for 1 hour, the testing drugs in different doses were administered to mice by gavage in the amount of 0.2 ml/10 g, respectively. Seven dose groups of 0.05, 0.10, 0.20, 0.40, 0.80, 1.60, 3.20 mg/kg were set up for Escherichia coli while seven dose groups of 0.50, 1.0, 2.0, 4.0, 8.0, 16.0, 32.0 mg/kg were set up for Pseudomonas aeruginosa. Observation was conducted after administration and death statuses of the mice were recorded. A control group was set up and the number of mice which died within 7 days after infection was recorded at the same time. The obtained data were processed by Bliss method to calculate ED50. 8.

The test system of a further data set is Escherichia coli. Put plainly: Systemic infection in mouse, E. coli. The settings on record: Kunming mice, intraperitoneal infection with minimal lethal dose, drug by gavage 1 hour after infection, 7 days observation, Bliss method; for ED50: Escherichia coli, ip. It counts as in vivo.
Source text: as §1, §2, §3, §4, §5, §6, §7, §8

For the next data set, the system named is bacteria. Particulars: ulifloxacin enantiomers, small samples from chiral preparation chromatographic column; cited from earlier work.

Consider `Cc1oc(=O)oc1CN1CCN(c2cc3c(cc2F)c(=O)c(C(=O)O)c2n3C(C)S2)CC1` (racemic) [(+/−) Prulifloxacin, (±)6-fluoro-1-methyl-7-[4-(5-methyl-2-oxo-1,3-dioxolen-4-yl)methyl-1-piperazinyl]-4-oxo-4H-[1,3]thiazeto[3,2-α]quinoline-3-carboxylic acid, reference compound], for which, in data set [1], the half-life is 8 to 9 h and the “time at which peak blood concentration is attained” value is 0.5 to 1 h. Besides, the LD50 at 2 weeks in data set [2] was over 5000 mg/kg. The compound also showed an ED50 with Pseudomonas aeruginosa of 4.04 mg/kg. Also, in the data set on Escherichia coli, the ED50 stood at 0.53 mg/kg.
Regarding `C[C@@H]1Sc2c(C(=O)O)c(=O)c3cc(F)c(N4CCNCC4)cc3n21` (single isomer, unassigned) [levo-enantiomer], in the data set on bacteria, the “antibacterial activity of levo-enantiomer relative to dextro-enantiomer” value was 2 to 8 times.
With `Cc1oc(=O)oc1CN1CCN(c2cc3c(cc2F)c(=O)c(C(=O)O)c2n3C(C)S2)CC1` (single isomer, unassigned; (+)) [(+) Prulifloxacin], the “ED50 P. aeruginosa” value with Pseudomonas aeruginosa was determined as 8.20 mg/kg. Also, in the data set on Escherichia coli, the “ED50 E. coli” value came to 1.58 mg/kg.
In the same order, the values of `Cc1oc(=O)oc1CN1CCN(c2cc3c(cc2F)c(=O)c(C(=O)O)c2n3[C@H](C)S2)CC1.Cl` [(−) Prulifloxacin hydrochloride, S-(−)-6-fluoro-1-methyl-7-[4-(5-methyl-2-oxo-1,3-dioxolen-4-yl)methyl-1-piperazinyl]-4-oxo-4H-[1,3]thiazeto[3,2-α]quinoline-3-carboxylic acid hydrochloride] are 1.25 mg/kg and 0.12 mg/kg.
Take `CS(=O)(=O)O.Cc1oc(=O)oc1CN1CCN(c2cc3c(cc2F)c(=O)c(C(=O)O)c2n3[C@H](C)S2)CC1` [(−) Prulifloxacin mesylate, S-(−)-6-fluoro-1-methyl-7-[4-(5-methyl-2-oxo-1,3-dioxolen-4-yl)methyl-1-piperazinyl]-4-oxo-4H-[1,3]thiazeto[3,2-α]quinoline-3-carboxylic acid mesylate]: in the data set with Pseudomonas aeruginosa, the “ED50 P. aeruginosa” value came to 1.22 mg/kg. The “ED50 E. coli” value in the data set on Escherichia coli is 0.11 mg/kg.
For the compound `Cc1oc(=O)oc1CN1CCN(c2cc3c(cc2F)c(=O)c(C(=O)O)c2n3[C@H](C)S2)CC1` [(−) Prulifloxacin, S-(−)-6-fluoro-1-methyl-7-[4-(5-methyl-2-oxo-1,3-dioxolen-4-yl)methyl-1-piperazinyl]-4-oxo-4H-[1,3]thiazeto[3,2-α]quinoline-3-carboxylic acid], the LD50 at 2 weeks in data set [2] was over 5000 mg/kg. In addition, the results for the ED50 in the data set on Pseudomonas aeruginosa and in the data set with Escherichia coli were 1.02 mg/kg and 0.11 mg/kg, respectively.
In the case of `CC1COc2c(N3CCN(C)CC3)c(F)cc3c(=O)c(C(=O)O)cn1c23` (centres unmarked) [Ofloxacin, reference compound], the ED50 came out at 16.1 mg/kg in the data set with Pseudomonas aeruginosa and 0.82 mg/kg in the data set with Escherichia coli.
